Columns and labels:
Format in all cases: cell-based
primary CLL cells = test: Cytotoxicity, TMRE flow cytometry viability, primary CLL cells (Example II.1); conditions: Homo sapiens, CLL cell, 6 hours, TMRE positive cells normalized to control, ratio to PF670462, <1 = higher cytotoxicity than PF670462, read-out: Viability of cells, Compound of formula I (100 μM), relative to PF670462 (100 μM), CLL primary cells
OVCAR4 = test: Cytotoxicity on panel of cell lines, TMRE viability (Example II.2); conditions: Homo sapiens, OVCAR-4, 24 hours, mean, control = 1, read-out: cell viability relative to control, OVCAR4 (ovarian cancer)
Experimental: (§1) The leukemia and lymphoma-derived cell lines [MEC-1 cell line (derived from chronic lymphocytic leukemia—CLL), Nalm-16 (acute lymphocytic leukemia—ALL), K562 (chronic myeloid leukemia—CML), HL-60 (acute myeloid leukemia—AML), Maver-1 and Mino (mantle cell lymphoma—MCL), BL-41 (Burkitt lymphoma—BL), WSU-NHL (follicular lymphoma—FL), SUDHL (diffuse large B-cell lymphoma—DLBCL)], primary CLL cells and nonmalignant control primary cells were cultured in suspension in flasks under the following conditions: RPMI 1640 medium (Hyclone) supplemented with 10% fetal bovine serum (FBS, Gibco) and 1% penicillin/streptomycin (Life Technologies), 37° C., 5% CO2 and 95% relative humidity, with optimal culture cell density 5×10^6 cells/mL in case of primary cells and 0.5-1×10^6 cells/mL in case of cell lines. The adherent cell lines [A375 (derived from malignant melanoma), MDA-MB-231 and MCF-7 (breast cancer), MIA-PA-CA and PANC1 (pancreatic cancer), PC3 (prostate cancer), OVCAR4 (ovarian cancer) and HEPG2 (hepatocellular carcinoma)] were cultured on plates under the same conditions using RPMI1640 or DMEM medium (Gibco) according to instructions provided by the distributor (DSMZ/ATCC).
(§2) The tested cell lines were incubated with inhibitors at 30 μM concentration or corresponding amount of solvent (DMSO, Sigma Aldrich) in standard culture conditions, seeded as 10^5 cells/500 μl per well in a 24-well plate. Experiments were performed in technical duplicates and 2-3 biological repetitions per cell line. Viability of cells was assessed after 24 hours.
(§3) Relative values are presented as a mean value, showing ratio to the effect of control. Relative value <1=lower viability than control condition.

primary CLL = test: as above; conditions: Homo sapiens, 24 hours, mean, control = 1, read-out: cell viability relative to control, primary CLL
Experimental: as §1, §2, §3

BL-41 = test: as above; conditions: Homo sapiens, 24 hours, mean, control = 1, read-out: cell viability relative to control, BL-41 (BL)
Experimental: as §1, §2, §3

PANC1 = test: as above; conditions: Homo sapiens, PANC-1, 24 hours, mean, control = 1, read-out: cell viability relative to control, PANC1 (pancreatic cancer)
Experimental: as §1, §2, §3

Nalm16 = test: as above; conditions: 24 hours, mean, control = 1, read-out: cell viability relative to control, Nalm16 (ALL)
Experimental: as §1, §2, §3

SUDHL = test: as above; conditions: 24 hours, mean, control = 1, read-out: cell viability relative to control, SUDHL (DLBCL)
Experimental: as §1, §2, §3

Mino = test: as above; conditions: Homo sapiens, 24 hours, mean, control = 1, read-out: cell viability relative to control, Mino (MCL)
Experimental: as §1, §2, §3

Maver1 = test: as above; conditions: Homo sapiens, 24 hours, mean, control = 1, read-out: cell viability relative to control, Maver1 (MCL)
Experimental: as §1, §2, §3

[1] = system: Maver-1 cells (mantle cell lymphoma); test: Cytotoxicity, TMRE flow cytometry viability, Maver-1 cells (Example II.1); conditions: Homo sapiens, Maver1, 24 hours, TMRE positive cells normalized to control, ratio to PF670462, <1 = higher cytotoxicity than PF670462, read-out: Viability of cells, Compound of formula I (100 μM), relative to PF670462 (100 μM), Maver-1 cells (mantle cell lymphoma)
MCF-7 = test: Cytotoxicity on panel of cell lines, TMRE viability (Example II.2); conditions: Homo sapiens, MCF7, 24 hours, mean, control = 1, read-out: cell viability relative to control, MCF-7 (breast cancer)
Experimental: as §1, §2, §3

WSU-NHL = test: as above; conditions: Homo sapiens, 24 hours, mean, control = 1, read-out: cell viability relative to control, WSU-NHL (FL)
Experimental: as §1, §2, §3

MIA-PA-CA = test: as above; conditions: Homo sapiens, MIA PaCa-2, 24 hours, mean, control = 1, read-out: cell viability relative to control, MIA-PA-CA (pancreatic cancer)
Experimental: as §1, §2, §3

HL60 = test: as above; conditions: Homo sapiens, HL-60, 24 hours, mean, control = 1, read-out: cell viability relative to control, HL60 (AML)
Experimental: as §1, §2, §3

HEPG2 = test: as above; conditions: Homo sapiens, 24 hours, mean, control = 1, read-out: cell viability relative to control, HEPG2 (hepatocellular carcinoma)
Experimental: as §1, §2, §3

PC3 = test: as above; conditions: Homo sapiens, PC-3, 24 hours, mean, control = 1, read-out: cell viability relative to control, PC3 (prostate cancer)
Experimental: as §1, §2, §3

MEC-1 = test: as above; conditions: Homo sapiens, MEC1, 24 hours, mean, control = 1, read-out: cell viability relative to control, MEC-1 (CLL)
Experimental: as §1, §2, §3

A375 = test: as above; conditions: Homo sapiens, A-375, 24 hours, mean, control = 1, read-out: cell viability relative to control, A375 (melanoma)
Experimental: as §1, §2, §3

Row | Structure (SMILES) | viability at 100 µM (primary CLL cells) | viability at 30 µM (OVCAR4) | viability at 30 µM (primary CLL) | viability at 30 µM (BL-41) | viability at 30 µM (PANC1) | viability at 30 µM (Nalm16) | viability at 30 µM (SUDHL) | viability at 30 µM (Mino) | viability at 30 µM (Maver1) | viability at 100 µM [1] | viability at 30 µM (MCF-7) | viability at 30 µM (WSU-NHL) | viability at 30 µM (MIA-PA-CA) | viability at 30 µM (HL60) | viability at 30 µM (HEPG2) | viability at 30 µM (PC3) | viability at 30 µM (MEC-1) | viability at 30 µM (A375)
1 | Fc1ccc(-c2ncn(C3CCNCC3)c2-c2ccnc3[nH]ccc23)cc1 [Preparative Example 37, 4-(4-(4-fluorophenyl)-1-(piperidin-4-yl)-1H-imidazol-5-yl)-1H-pyrrolo[2,3-b]pyridine] | 51% | 82% | 39% | 75% | 67% | 50% | 89% | – | – | – | – | – | – | – | – | – | – | –
2 | COCCCn1cnc(-c2ccc(F)cc2)c1-c1ccnc2[nH]ccc12 [Preparative Example 24, 4-(4-(4-fluorophenyl)-1-(3-methoxypropyl)-1H-imidazol-5-yl)-1H-pyrrolo[2,3-b]pyridine] | 30% | – | 85% | 76% | – | 75% | – | 80% | 72% | – | – | – | – | – | – | – | – | –
3 | CS(=O)(=O)N[C@H]1CC[C@@H](n2cnc(-c3ccc(F)cc3)c2-c2ccnc3[nH]ccc23)CC1 [Preparative Example 74, N-(cis-4-(4-(4-fluorophenyl)-5-(1H-pyrrolo[2,3-b]pyridin-4-yl)-1H-imidazol-1-yl)cyclohexyl)methanesulfonamide] | 73% | – | – | – | – | 78% | – | – | 84% | 46% | 72% | – | – | – | – | – | – | –
4 | Fc1ccc(-c2ncn(C3CCCCC3)c2-c2c(F)cnc3[nH]ccc23)cc1 [Preparative Example 147, 4-(1-cyclohexyl-4-(4-fluorophenyl)-1H-imidazol-5-yl)-5-fluoro-1H-pyrrolo[2,3-b]pyridine] | 8% | 69% | 37% | 21% | 67% | – | 1% | 1% | 0% | 3% | 41% | 38% | 45% | 84% | 41% | 57% | 38% | 85%
5 | c1cc(-c2c(C3CCCCC3)ncn2C2CCCCC2)c2cc[nH]c2n1 [Preparative Example 67, 4-(1,4-dicyclohexyl-1H-imidazol-5-yl)-1H-pyrrolo[2,3-b]pyridine] | 66% | – | – | 76% | – | 40% | – | 72% | 73% | 71% | – | 84% | – | – | – | – | – | 55%
6 | Fc1ccc(-c2ncn(Cc3ccoc3)c2-c2ccnc3[nH]ccc23)cc1 [Preparative Example 23] | 37% | – | 68% | 57% | – | 20% | 67% | 65% | 71% | 46% | 31% | – | – | – | – | – | 84% | –
7 | Fc1ccc(-c2ncn(-c3ccccc3)c2-c2ccnc3[nH]ccc23)cc1 [Preparative Example 47] | 78% | 76% | 81% | 73% | 83% | 57% | – | – | – | – | – | – | – | – | – | – | – | –
8 | Fc1ccc(-c2ncn(CC3CCCO3)c2-c2ccnc3[nH]ccc23)cc1 (stereo not shown) [Preparative Example 27, 4-(4-(4-fluorophenyl)-1-((tetrahydrofuran-2-yl)methyl)-1H-imidazol-5-yl)-1H-pyrrolo[2,3-b]pyridine] | – | 84% | – | – | – | – | – | – | 78% | – | – | – | – | – | 85% | – | – | –
9 | Fc1ccc(-c2ncn(C3CCCCC3)c2-c2ccnc3[nH]ccc23)cc1F [Preparative Example 173] | 2% | – | 62% | 5% | – | – | 3% | 1% | 0% | 1% | 52% | 16% | 74% | 77% | 58% | – | 9% | –
10 | Fc1ccc(-c2ncn(Cc3ccco3)c2-c2ccnc3[nH]ccc23)cc1 [Preparative Example 81, 4-(4-(4-fluorophenyl)-1-(furan-2-ylmethyl)-1H-imidazol-5-yl)-1H-pyrrolo[2,3-b]pyridine] | 60% | – | 77% | – | – | – | – | 37% | 51% | 10% | 68% | 68% | – | – | 58% | – | – | –
11 | Cn1cnc(Cn2cnc(-c3ccc(F)cc3)c2-c2ccnc3[nH]ccc23)n1 [Preparative Example 106, 4-(4-(4-fluorophenyl)-1-((1-methyl-1H-1,2,4-triazol-3-yl)methyl)-1H-imidazol-5-yl)-1H-pyrrolo[2,3-b]pyridine] | – | 89% | – | – | – | – | – | 85% | 54% | 7% | 65% | 82% | 68% | – | 24% | – | – | 79%
12 | Fc1ccc(-c2ncn(C3CCCCC3)c2-c2ccnc3[nH]cc(F)c23)cc1 [Preparative Example 149, 4-(1-cyclohexyl-4-(4-fluorophenyl)-1H-imidazol-5-yl)-3-fluoro-1H-pyrrolo[2,3-b]pyridine] | 11% | – | 68% | 22% | – | – | 21% | 1% | 1% | 0% | 65% | 26% | 87% | 79% | 77% | 86% | 33% | –

Source: patent publication US11498920B2, “4-(1H-imidazol-5-yl)-1H-pyrrolo[2, 3-b] pyridines for use in the treatment of leukaemias, lymphomas and solid tumors” (MASARYKOVA UNIVERZITA, priority 2018, dated 2022)
